In one data set the test system is NB-4. In words: Cell viability (CellTiter-Glo). Type of data set: cell-based, Human. As to conditions: for IC50: Homo sapiens.
Another data set has as its system SKOV-3. In words: Cell viability (CellTiter-Glo), 48 hrs. The class given is cell-based. The note with it: Homo sapiens, SK-OV-3, 48 h, read-out: SKOV-3 Viability 48 h IC50.
In another data set the target is BIR3 domain of XIAP (Homo sapiens, UniProt P98170). The data set can be described thus: Fluorescence polarization assay. Type of data set: binding. The note with it: SMAC-FITC probe, Ki calculated from IC50. The essentials:
(§1)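 Competitive FP with 50 nM SMAC-FITC probe in 100 mM KH2PO4 pH 7.5, 50 μM ZnSO4, 1 mM TCEP; cIAP1 and XIAP at 800 nM, cIAP2 and ML-IAP at 1.5 μM. Compounds 30 μM to 1.5 nM in 3-fold steps; ex 485/em 535 nm. IC50 by nonlinear fit, converted to Ki via Nikolovska-Coleska equation.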

Another data set addresses BIR3 domain of cIAP1 (Homo sapiens, UniProt Q13490). The data set can be described thus: Fluorescence polarization assay. Type of data set: binding. As to conditions: SMAC-FITC probe, Ki calculated from IC50. The essentials: as §1
In the next data set the target is BIR3 domain of cIAP2 (Homo sapiens, UniProt Q13489). In words: Fluorescence polarization assay. As to conditions: SMAC-FITC probe, Ki calculated from IC50. The class given is binding. The essentials:
as §1

Another data set concerns the target T1, ML-IAP (Homo sapiens, UniProt Q96CA5).
T1 sequence (Q96CA5 1-298): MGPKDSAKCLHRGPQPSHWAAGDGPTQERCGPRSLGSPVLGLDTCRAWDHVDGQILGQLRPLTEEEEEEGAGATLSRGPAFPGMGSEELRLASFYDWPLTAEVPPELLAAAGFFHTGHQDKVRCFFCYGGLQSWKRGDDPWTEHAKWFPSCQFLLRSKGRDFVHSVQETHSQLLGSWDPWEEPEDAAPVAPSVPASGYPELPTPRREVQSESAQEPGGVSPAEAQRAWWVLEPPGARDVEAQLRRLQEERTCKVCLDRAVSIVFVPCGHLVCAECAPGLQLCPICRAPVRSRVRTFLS
The data set can be described thus: Fluorescence polarization assay. The class given is binding. The note with it: SMAC-FITC probe, Ki calculated from IC50. A digest of the protocol: as §1

For data set [1], the system named is PBMC or resting CD4+ T cells. In words: Cytokine release (LEGENDplex Human Inflammation Panel 13-plex). Type of data set: cell-based. The note with it: PBMC or resting CD4+ T cells of healthy human donors (FIG. 3). As for the experimental part: Compound 18a was also tested for its impact on T cell activation and cytokine release. Peripheral blood mononuclear cells (PBMC) were isolated by Ficoll density gradient centrifugation (Histopaque, Sigma Aldrich) from buffy coats of three healthy human donors (San Diego Blood Bank). Resting CD4^+ T cells were subsequently isolated by negative selection using magnetic beads (Miltenyi Biotec). Cells were treated with compound 18a, or 50 ng/ml Phorbol myristate acetate (PMA) and 1 μM lonomycin, or Dynabeads Human T-Activator CD3/CD28 (ThermoFisher Scientific) at a bead-to-cell ratio of 1:1, or left untreated. Expression of the early and late activation markers CD69 and CD25 on CD4+ T cells was assessed by flow cytometry using a Phycoerythrin-labeled anti-CD69 antibody (BioLegend; Cat #310906) and an Allophycocyanin-labeled anti-CD25 antibody (BioLegend; Cat #302610). Cytokine expression levels in cultures of PBMC or resting CD4+ T cells were analyzed using the LEGENDplex Human Inflammation Panel 13-plex (BioLegend).

Data set [2] relates to latently infected cell line Jurkat 2D10. The data set can be described thus: Combination with other LRA, Bliss Independence model, GFP expression. The class given is cell-based. As to conditions: Jurkat 2D10, 48 hours, with JQ1, I-BET 151, Bryostatin, Ingenol-3-angelate. Here is the method: Compound 18a was also tested in combination with other LRA reagents for synergistic activation of the latently infected cell line Jurkat 2D10. Jurkat 2D10 cells were treated with combinations of compound 18a and BET inhibitors (JQ1, I-BET 151) or PKC agonists (Bryostatin, Ingenol-3-angelate) for 48 hours. Reversal of HW latency was evaluated by analyzing GFP expression using flow cytometry. Synergy was assessed with the Bliss Independence model where the observed effect of a combination of compounds f12 is compared to the expected effect E(f12) that is calculated based on the observed effects of the individual compounds f1 and f2 using the formula E(f12)=f1+J2−(f1*f2). The difference between the observed effect of the combined compounds (f12) and the expected combined effect of the two compounds E(f12) is given as the excess over Bliss score (EOB). An EOB value greater than 0 indicates synergy between the compounds.

Each structure is given as a SMILES string. Where two headings read alike, the source gives them in different places. Where only a bound is given, the exact number is not on record here.

Broadly, the IC50 is the concentration that inhibits the measured activity by half. Usually Ki stands for the equilibrium dissociation constant of an inhibitor or competing ligand from its target.

BIR3 domain of cIAP2, sequence (Q13489 238-349 limits assumed): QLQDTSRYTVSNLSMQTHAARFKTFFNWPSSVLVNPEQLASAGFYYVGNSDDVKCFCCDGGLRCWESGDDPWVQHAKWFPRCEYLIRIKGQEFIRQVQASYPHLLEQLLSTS
BIR3 domain of XIAP, sequence (P98170 241-356 limits assumed): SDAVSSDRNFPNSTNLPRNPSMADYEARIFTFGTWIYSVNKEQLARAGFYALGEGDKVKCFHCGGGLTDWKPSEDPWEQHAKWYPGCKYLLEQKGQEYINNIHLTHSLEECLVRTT
BIR3 domain of cIAP1, sequence (Q13490 253-363 limits assumed): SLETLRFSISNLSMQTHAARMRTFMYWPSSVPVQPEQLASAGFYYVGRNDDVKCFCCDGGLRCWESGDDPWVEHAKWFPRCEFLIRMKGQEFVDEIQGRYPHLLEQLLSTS

In the case of `CN[C@@H](C)C(=O)N[C@H]1CCS[C@H]2CC(C)(C)[C@@H](C(=O)N[C@H]3c4ccccc4C[C@H]3OCC#CC#CCO[C@@H]3Cc4ccccc4[C@@H]3NC(=O)[C@H]3N4C(=O)[C@@H](NC(=O)[C@H](C)NC)CCS[C@H]4CC3(C)C)N2C1=O` [Compound 18a, (2S)-1-{[(4S,7S,9aS)-74{(1S,2R)-2-[(6-{[(1S,2R)-1-({[(4S,7S,9aS)-8,8-Dimethyl-4-{[(2S)-2-(methylammonio)propanoyl]amino}-5-oxooctahydropyrrolo[2,1-b][1,3]thiazepin-7-yl]carbonyl}amino)-2,3-dihydro-1H-inden-2-yl]oxy}hexa-2,4-diyn-1-yl)oxy]-2,3-dihydro-1H-inden-1-yl}carbamoyl)-8,8-dimethyl-5-oxooctahydropyrrolo[2,1-b][1,3]thiazepinyl]amino}-N-methyl-1-oxopropan-2-ammonium dichloride], the concentration for half-maximal inhibition (IC50) with NB-4 (NB-4, 72 h, read-out: NB-4 Viability 72 h IC50) is less than 0.01 µM; in the data set on NB-4 (NB-4, 144 h, read-out: IC50 6 d) it was less than 0.01 µM; in the data set with SKOV-3, less than 0.01 µM. Besides, the “Cell viability at max. concentration” value in the data set with NB-4 (NB-4, 6 d) is recorded as “I (I<10%)”. Also, the Ki is not above 0.05 µM on BIR3 domain of XIAP, not above 0.05 µM at BIR3 domain of cIAP1, 0.05 to 0.1 µM at BIR3 domain of cIAP2 and 0.05 to 0.1 µM on ML-IAP. Also, the cytokine release result in data set [1] is recorded as “did not induce”. For the same compound, in data set [2], the “synergy with LRA compounds in reversal of HIV latency” value is recorded as “synergizes with the tested LRA compounds to reverse HW latency”.

These data come from patent US12678509B2, “Inhibitor of apoptosis (IAP) protein antagonists” (Sanford Burnham Prebys Medical Discovery Institute, priority 2019, dated 2026).
